The values that follow come from patent US7064120B2, “Tricyclic pyridyl carboxamides and derivatives thereof tocolytic oxytocin receptor antagonists” (Wyeth, priority 2001, dated 2006).

One experiment concerns the target T1, human oxytocin receptor (Homo sapiens, UniProt P30559).
T1 construct: host or cells: CHO cells, stably transfected (pcDNA3.1 vector)
T1 sequence (P30559 1-389): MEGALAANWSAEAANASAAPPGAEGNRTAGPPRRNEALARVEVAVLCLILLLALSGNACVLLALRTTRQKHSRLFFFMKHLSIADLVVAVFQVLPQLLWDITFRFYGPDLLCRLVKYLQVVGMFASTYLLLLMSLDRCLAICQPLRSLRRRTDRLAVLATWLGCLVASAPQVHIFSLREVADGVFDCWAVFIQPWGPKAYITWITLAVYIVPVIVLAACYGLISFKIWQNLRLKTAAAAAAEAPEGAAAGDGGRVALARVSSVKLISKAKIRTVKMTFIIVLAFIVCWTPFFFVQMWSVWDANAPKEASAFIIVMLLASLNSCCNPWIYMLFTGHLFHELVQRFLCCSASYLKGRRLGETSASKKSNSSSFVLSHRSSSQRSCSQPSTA
Briefly: Oxytocin binding in CHO cell membranes expressing human oxytocin receptors ([3H]oxytocin radioligand binding). The note with it: 100 nM, read-out: OT % inhibition @ 100 nM. A digest of the protocol:
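CHO membranes expressing human oxytocin receptor (25–50 μg protein/well) incubated 60 min at room temperature with [3H]oxytocin in Tris-HCl pH 7.4 buffer with MgCl2, BSA and protease inhibitors. Filtration and scintillation counting; reported as % inhibition at a stated concentration or nM IC50.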
As for `COc1ccccc1-c1ccc(C(=O)N2Cc3ccc(C(=O)N(C)CCc4ccccn4)n3Cc3ccccc32)cc1C` [Example 65, 10-[(2′-Methoxy-2-methyl-[1,1′-biphenyl]-4-yl)carbonyl]-N-methyl-N-[2-(2-pyridinyl)ethyl]-10,11-dihydro-5H-pyrrolo[2,1-c][1,4]benzodiazepine-3-carboxamide], the inhibition (commonly the drop in the measured response relative to a control, in per cent) at 0.1 µM worked out at 95%. In the case of `COc1cc(C(=O)N2Cc3ccc(C(=O)NCc4ccncc4)n3Cc3ccccc32)ccc1-c1ccccc1C` [Example 93, 10-[(2-Methoxy-2′-methyl-[1,1′-biphenyl]-4-yl)carbonyl]-N-(4-pyridinylmethyl)-10,11-dihydro-5H-pyrrolo[2,1-c][1,4]benzodiazepine-3-carboxamide], the inhibition at 0.1 µM is 69%.

For the compound `Cc1ccccc1-c1ccc(C(=O)N2Cc3ccc(C(=O)N(C)Cc4cccnc4)n3Cc3ccccc32)cc1` [Example 105, N-Methyl-10-[(2′-methyl-[1,1′-biphenyl]-4-yl)carbonyl]-N-(3-pyridinylmethyl)-10,11-dihydro-5H-pyrrolo[2,1-c][1,4]benzodiazepine-3-carboxamide], the inhibition at 0.1 µM is -9%.

For `COc1cccc(-c2ccc(C(=O)N3Cc4ccc(C(=O)N5CCN(c6ccccn6)CC5)n4Cc4ccccc43)cc2C)c1` [Example 77, {10-[(3′-Methoxy-2-methyl-[1,1′-biphenyl]-4-yl)carbonyl]-10,11-dihydro-5H-pyrrolo[2,1-c][1,4]benzodiazepin-3-yl}[4-(2-pyridinyl)-1-piperazinyl]methanone], the inhibition at 0.1 µM worked out at 21%. On the same count and under the same terms, under `COc1cccc(-c2ccc(C(=O)N3Cc4ccc(C(=O)NCc5ccncc5)n4Cc4ccccc43)cc2C)c1` [Example 90, 10-[(3′-Methoxy-2-methyl-[1,1′-biphenyl]-4-yl)carbonyl]-N-(4-pyridinylmethyl)-10,11-dihydro-5H-pyrrolo[2,1-c][1,4]benzodiazepine-3-carboxamide] stands 44%; under `Cc1cc(C(=O)N2Cc3ccc(C(=O)N(C)CCc4ccccn4)n3Cc3ccccc32)ccc1-c1ccccc1C(F)(F)F` [Example 74, N-Methyl-10-{[2-methyl-2′-trifluoromethyl-[1,1′-biphenyl]-4-yl]carbonyl}-N-[2-(2-pyridinyl)ethyl]-10,11-dihydro-5H-pyrrolo[2,1-c][1,4]benzodiazepine-3-carboxamide], 91%. On to `O=C(NCc1ccncc1)c1ccc2n1Cc1ccccc1N(C(=O)c1ccc(-c3cccc4ccccc34)cc1Cl)C2` [Example 99, 10-[2-Chloro-4-(naphthalen-1-yl)benzoyl]-N-(4-pyridinylmethyl)-10,11-dihydro-5H-pyrrolo[2,1-c][1,4]benzodiazepine-3-carboxamide], for which the inhibition at 0.1 µM is 13%.

Turning to `COc1ccccc1-c1ccc(C(=O)N2Cc3ccc(C(=O)N4CCN(c5ccccn5)CC4)n3Cc3ccccc32)cc1OC` [Example 84, {10-[(2,2′-Dimethoxy-[1,1′-biphenyl]-4-yl)carbonyl]-10,11-dihydro-5H-pyrrolo[2,1-c][1,4]benzodiazepin-3-yl}[4-(2-pyridinyl)-1-piperazinyl]methanone], the inhibition at 0.1 µM is 46%. On to `CN(CCc1ccccn1)C(=O)c1ccc2n1Cc1ccccc1N(C(=O)c1ccc(-c3cccc4ccccc34)cc1Cl)C2` [Example 73, 10-[2-Chloro-4-(naphthalen-1-yl)benzoyl]-N-methyl-N-[2-(2-pyridinyl)ethyl]-10,11-dihydro-5H-pyrrolo[2,1-c][1,4]benzodiazepine-3-carboxamide], for which the inhibition at 0.1 µM was found to be 32%. For `COc1ccccc1-c1ccc(C(=O)N2Cc3ccc(C(=O)NCc4ccncc4)n3Cc3ccccc32)cc1` [Example 91, 10-[(2′-Methoxy-[1,1′-biphenyl]-4-yl)carbonyl]-N-(4-pyridinylmethyl)-10,11-dihydro-5H-pyrrolo[2,1-c][1,4]benzodiazepine-3-carboxamide], the inhibition at 0.1 µM stood at 44%. Still for that read-out and setting: the value for `Cc1ccccc1-c1ccc(C(=O)N2Cc3ccc(C(=O)N4CCN(c5ccccn5)CC4)n3Cc3ccccc32)cc1` [Example 79, {10-[(2′-Methyl-[1,1′-biphenyl]-4-yl)carbonyl]-10,11-dihydro-5H-pyrrolo[2,1-c][1,4]benzodiazepin-3-yl}[4-(2-pyridinyl)-1-piperazinyl]methanone] was 49%; that for `Cc1ccccc1-c1ccc(C(=O)N2Cc3ccc(C(=O)NCc4ccncc4)n3Cc3ccccc32)cc1` [Example 92, 10-[(2′-Methyl-[1,1′-biphenyl]-4-yl)carbonyl]-N-(4-pyridinylmethyl)-10,11-dihydro-5H-pyrrolo[2,1-c][1,4]benzodiazepine-3-carboxamide] was 30%; that for `COc1cc(C(=O)N2Cc3ccc(C(=O)N(C)CCc4ccccn4)n3Cc3ccccc32)ccc1-c1cccc2ccccc12` [Example 71, 10-[3-Methoxy-4-(naphthalen-1-yl)benzoyl]-N-methyl-N-[2-(2-pyridinyl)ethyl]-10,11-dihydro-5H-pyrrolo[2,1-c][1,4]benzodiazepine-3-carboxamide] was 81%. On the same count and under the same terms, under `COc1ccccc1-c1ccc(C(=O)N2Cc3ccc(C(=O)NCc4ccncc4)n3Cc3ccccc32)cc1C` [Example 88, 10-[(2′-Methoxy-2-methyl-[1,1′-biphenyl]-4-yl)carbonyl]-N-(4-pyridinylmethyl)-10,11-dihydro-5H-pyrrolo[2,1-c][1,4]benzodiazepine-3-carboxamide] stands 44%; under `COc1cc(-c2ccccc2C)c(Cl)cc1C(=O)N1Cc2ccc(C(=O)NCc3ccncc3)n2Cc2ccccc21` [Example 94, 10-[(6-Chloro-3-methoxy-2′-methyl-[1,1′-biphenyl]-4-yl)carbonyl]-N-(4-pyridinylmethyl)-10,11-dihydro-5H-pyrrolo[2,1-c][1,4]benzodiazepine-3-carboxamide], 37%.

On to `Cc1ccccc1-c1ccc(C(=O)N2Cc3ccc(C(=O)N(C)CCc4ccccn4)n3Cc3ccccc32)cc1` [Example 68, N-Methyl-10-[(2′-methyl-[1,1′-biphenyl]-4-yl)carbonyl]-N-[2-(2-pyridinyl)ethyl]-10,11-dihydro-5H-pyrrolo[2,1-c][1,4]benzodiazepine-3-carboxamide], for which the inhibition at 0.1 µM turned out to be 93%. On to `COc1ccccc1-c1ccc(C(=O)N2Cc3ccc(C(=O)N(C)Cc4cccnc4)n3Cc3ccccc32)cc1` [Example 104, 10-[(2′-Methoxy-[1,1′-biphenyl]-4-yl)carbonyl]-N-methyl-N-(3-pyridinylmethyl)-10,11-dihydro-5H-pyrrolo[2,1-c][1,4]benzodiazepine-3-carboxamide], for which the inhibition at 0.1 µM was 99%. Same read-out and setting: the value for `COc1cccc(-c2ccc(C(=O)N3Cc4ccc(C(=O)N5CCN(c6ccccn6)CC5)n4Cc4ccccc43)cc2OC)c1` [Example 85, {10-[(2,3′-Dimethoxy-[1,1′-biphenyl]-4-yl)carbonyl]-10,11-dihydro-5H-pyrrolo[2,1-c][1,4]benzodiazepin-3-yl}[4-(2-pyridinyl)-1-piperazinyl]methanone] was 32%; that for `Cc1ccccc1-c1ccc(C(=O)N2Cc3ccc(C(=O)N4CCN(c5ccccn5)CC4)n3Cc3ccccc32)cc1C` [Example 76, {10-[(2,2′-Dimethyl-[1,1′-biphenyl]-4-yl)carbonyl]-10,11-dihydro-5H-pyrrolo[2,1-c][1,4]benzodiazepin-3-yl}[4-(2-pyridinyl)-1-piperazinyl]methanone] was 62%.

The experiment is the same for the next values; noted with them: value in parentheses, read-out: OT (IC50).
Turning to `Cc1cc(C(=O)N2Cc3ccc(C(=O)N(C)Cc4cccnc4)n3Cc3ccccc32)ccc1-c1ccccc1C(F)(F)F` [Example 112, N-Methyl-10-{[2-methyl-2′-trifluoromethyl-[1,1′-biphenyl]-4-yl]carbonyl}-N-(3-pyridinylmethyl)-10,11-dihydro-5H-pyrrolo[2,1-c][1,4]benzodiazepine-3-carboxamide], the IC50 (commonly the concentration that gives 50% inhibition) is 3.87 nM. On to `COc1ccccc1-c1ccc(C(=O)N2Cc3ccc(C(=O)N4CCN(c5ccncc5)CC4)n3Cc3ccccc32)cc1C` [Example 113, {10-[(2′-Methoxy-2-methyl-[1,1′-biphenyl]-4-yl)carbonyl]-10,11-dihydro-5H-pyrrolo[2,1-c][1,4]benzodiazepin-3-yl}[4-(4-pyridinyl)-1-piperazinyl]methanone], for which the IC50 was found to be 10.8 nM. Same read-out and setting: under `COc1cc(-c2ccccc2C)c(Cl)cc1C(=O)N1Cc2ccc(C(=O)N(C)CCc3ccccn3)n2Cc2ccccc21` [Example 63, 10-[(6-Chloro-3-methoxy-2′-methyl-[1,1′-biphenyl]-4-yl)carbonyl]-N-methyl-N-[2-(2-pyridinyl)ethyl]-10,11-dihydro-5H-pyrrolo[2,1-c][1,4]benzodiazepine-3-carboxamide] stands 5.08 nM; under `Cc1cc(C(=O)N2Cc3ccc(C(=O)N(C)Cc4ccc[n+]([O-])c4)n3Cc3ccccc32)ccc1-c1ccccc1C(F)(F)F` [Example 4, N-Methyl-10-{[2-methyl-2′-trifluoromethyl-[1,1′-biphenyl]-4-yl]carbonyl}-N-[(1-oxidopyridin-3-yl)methyl]-10,11-dihydro-5H-pyrrolo[2,1-c][1,4]benzodiazepine-3-carboxamide], 2.44 nM; under `COc1ccccc1-c1ccc(C(=O)N2Cc3ccc(C(=O)N(C)Cc4cccnc4)n3Cc3ccccc32)cc1OC` [Example 103, 10-[(2,2′-Dimethoxy-[1,1′-biphenyl]-4-yl)carbonyl]-N-methyl-N-(3-pyridinylmethyl)-10,11-dihydro-5H-pyrrolo[2,1-c][1,4]benzodiazepine-3-carboxamide], 6.25 nM.
